According to ChEMBL document CHEMBL4219140, “First discovery of a potential carbonate prodrug of NNRTI drug candidate RDEA427 with submicromolar inhibitory activity against HIV-1 K103N/Y181C double mutant strain” (Bioorg Med Chem Lett, 2018):
Activity calls are given as the source filed them. The calls are words filed in the database; no cut-off is given here.

Legend:
[1] = Selectivity index, ratio of CC50 for human MT4 cells to EC50 for HIV1 3B expressing wild type reverse transcriptase infected in human MT4 cells; format: toxicity, cell-based; settings: read-out: Ratio CC50/EC50
[2] = Cytotoxicity against human MT4 cells after 5 days by MTT assay; format: cell-based
[3] = system: Human immunodeficiency virus 1; assay: Antiviral activity against HIV1 RES056 expressing reverse transcriptase K103N/Y181C double mutant infected in human MT4 cells assessed as protection against virus-induced cytopathic effect after 5 days by MTT assay; format: functional, organism-based; settings: Human immunodeficiency virus 1, RES056, MT4, 120 h
[4] = Selectivity index, ratio of CC50 for human MT4 cells to EC50 for HIV1 RES056 expressing reverse transcriptase K103N/Y181C double mutant; format: toxicity; settings: read-out: Ratio CC50/EC50
[5] = system: Human immunodeficiency virus 1; assay: Antiviral activity against HIV1 3B expressing wild type reverse transcriptase infected in human MT4 cells assessed as protection against virus-induced cytopathic effect after 5 days by MTT assay; format: functional, organism-based; settings: Human immunodeficiency virus 1, 3B, MT4, 120 h
[6] = Prodrug conversion in human plasma assessed as RDEA427 formation at 100 uM by LC-MS/MS analysis; format: ADME, cell-free; settings: TDE = time-dependent effect
[7] = system: Human immunodeficiency virus 1; assay: Resistance index, ratio of EC50 for HIV1 RES056 harboring K103N/Y181C double mutant infected in human MT4 cells to EC50 for wild-type HIV1 3B infected in human MT4 cells; format: functional
[8] = Prodrug conversion in human plasma assessed as RDEA427 formation by measuring remaining prodrug levels at 100 uM measured after 30 mins by LC-MS/MS analysis; format: ADME, cell-free; settings: 0.5 h
[9] = Prodrug conversion in human plasma assessed as RDEA427 formation by measuring remaining prodrug levels at 100 uM measured after 120 mins by LC-MS/MS analysis; format: ADME, cell-free; settings: 2 h
[10] = target: Human immunodeficiency virus type 1 reverse transcriptase (Human immunodeficiency virus 1, UniProt Q72547); assay: Inhibition of recombinant wild-type HIV1 reverse transcriptase p66/p51 RNA-dependent DNA polymerase activity assessed as reduction in biotin-dUTP incorporation using poly(rA)/oligo(dT)16 as template/primer after 40 mins by PicoGreen dye based spectrofluorometric analysis
[11] = Prodrug conversion in human plasma assessed as RDEA427 formation by measuring remaining prodrug levels at 100 uM measured after 10 mins by LC-MS/MS analysis; format: ADME, cell-free
[12] = system: Human immunodeficiency virus 2; assay: Antiviral activity against HIV2 ROD infected in human MT4 cells after 5 days by MTT assay; format: functional, organism-based; settings: ISOLATE ROD
[13] = Prodrug conversion in human plasma assessed as RDEA427 formation by measuring remaining prodrug levels at 100 uM measured after 60 mins by LC-MS/MS analysis; format: ADME, cell-free; settings: 1 h
[14] = Metabolic stability in human plasma assessed as parent compound remaining at 100 uM after 120 mins by LC-MS/MS analysis; format: ADME, cell-free; settings: read-out: Stability
[15] = Metabolic stability in human plasma assessed as parent compound remaining at 100 uM after 30 mins by LC-MS/MS analysis; format: ADME, cell-free; settings: read-out: Stability
[16] = Metabolic stability in human plasma assessed as parent compound remaining at 100 uM after 60 mins by LC-MS/MS analysis; format: ADME, cell-free; settings: read-out: Stability
[17] = Metabolic stability in human plasma assessed as parent compound remaining at 100 uM after 10 mins by LC-MS/MS analysis; format: ADME, cell-free; settings: read-out: Stability

Compound: Cc1ccnc2c1NC(=O)c1cccnc1N2C1CC1 [NEVIRAPINE]
- selectivity ratio [1]: > 34
- CC50 at 120 h [2]: > 15000 nM
- EC50 [3]: > 15000 nM
- selectivity ratio [4]: 1
- EC50 [5]: 440 nM

Compound: Cc1cc(C#N)cc(C)c1Oc1nc(Nc2ccc(C#N)cc2)nc2c1ccn2COC(=O)OC(C)C
- Drug metabolism [6]: Tde
- Ratio EC50 [7]: 27.3
- Stability [8]: 73.9%
- selectivity ratio [1]: 190
- CC50 at 120 h [2]: 1050 nM
- Stability [9]: 56.4%
- EC50 [3]: 150 nM
- selectivity ratio [4]: 7
- IC50 [10]: 264 nM
- EC50 [5]: 5.5 nM
- Stability [11]: 87.8%
- Activity [12]: inactive
- Stability [13]: 53.3%

Compound: CC(C)[N+](C)(CCOC(=O)C1c2ccccc2Oc2ccccc21)C(C)C [PROPANTHELINE]
- remaining at 2 h, 100 µM [14]: 0.5%
- remaining at 0.5 h, 100 µM [15]: 19.4%
- remaining at 1 h, 100 µM [16]: 5.1%
- remaining at 10 min, 100 µM [17]: 54.8%

Compound: Cc1cc(C#N)cc(C)c1Oc1nc(Nc2ccc(C#N)cc2)nc2[nH]ccc12
- Ratio EC50 [7]: 19.1
- selectivity ratio [1]: ≥ 425
- CC50 at 120 h [2]: ≥ 1240 nM
- EC50 [3]: 56 nM
- selectivity ratio [4]: ≥ 22
- IC50 [10]: 16 nM
- EC50 [5]: 2.9 nM

Compound: O=C1Nc2ccc(Cl)cc2[C@@](C#CC2CC2)(C(F)(F)F)O1 [EFAVIRENZ]
- Ratio EC50 [7]: 30
- selectivity ratio [1]: > 1320
- CC50 at 120 h [2]: > 6340 nM
- EC50 [3]: 140 nM
- selectivity ratio [4]: > 44
- EC50 [5]: 4.8 nM

Compound: Cc1cc(C#N)cc(C)c1Oc1nc(Nc2ccc(C#N)cc2)nc(N)c1Br [ETRAVIRINE]
- Ratio EC50 [7]: 12
- selectivity ratio [1]: > 1170
- CC50 at 120 h [2]: > 4590 nM
- EC50 [3]: 47 nM
- selectivity ratio [4]: > 97
- EC50 [5]: 3.9 nM
